The text below walks through data of patent US20100010053A1, “COMPOUNDS” (priority 2008, published 2010).

Where only a bound is given, the exact number is not on record here.

The target of the test is T1, human S1P1 receptor (EDG1) (Homo sapiens, UniProt P21453).
T1 construct: TEV protease site + Gal4-VP16 transcription factor (only in the Tango assay cells; not described for the GTPγS membranes); expressed in transfected cells; host or cells: rat hepatoma cells (membranes, GTPγS assay) or Tango EDG1-bla U2OS cells (Tango assay)
T1 sequence (P21453 whole entry, the tested form may be a part): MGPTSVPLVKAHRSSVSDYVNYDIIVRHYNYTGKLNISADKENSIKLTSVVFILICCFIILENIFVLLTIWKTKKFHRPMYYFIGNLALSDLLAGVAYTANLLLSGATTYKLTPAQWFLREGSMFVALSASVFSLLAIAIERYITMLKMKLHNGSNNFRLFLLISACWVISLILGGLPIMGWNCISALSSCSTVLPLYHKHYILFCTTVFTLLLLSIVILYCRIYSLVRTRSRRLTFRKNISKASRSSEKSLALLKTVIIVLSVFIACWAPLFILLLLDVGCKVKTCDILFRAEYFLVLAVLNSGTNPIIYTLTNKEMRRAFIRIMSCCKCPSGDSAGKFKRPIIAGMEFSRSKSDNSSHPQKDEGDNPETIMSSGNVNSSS
As to the kind of experiment: S1P1 GTPγS assay or S1P1 Tango assay (at least one of the above assays). The class given is cell-based. Conditions: read-out: pEC50 in at least one of the above assays (converted). Here is the method:
For membrane preparations all steps were performed at 4° C. Rat hepatoma cells stably expressing the human S1P1 receptor or Rat Basophilic Leukaemia cells (RBL) stably expressing human S1P3 receptor were grown to 80% confluency before being harvested into 10 ml Phospho-Buffered Saline (PBS) and centrifuged at 1200 rpm for 5 minutes. After removal of the supernatant, the pellet was re-suspended and cells were homogenised within a glass Waring blender for 2 bursts of 15 secs in 200 mls of buffer (50 mM HEPES, 1 mM leupeptin, 25 μg/ml bacitracin, 1 mM EDTA, 1 mM PMSF, 2 μM pepstatin A). The blender was plunged into ice for 5 mins after the first burst and 10-40 mins after the final burst to allow foam to dissipate. The material was then spun at 500 g for 20 mins and the supernatant spun for 36 mins at 48,000 g. The pellet was resuspended in the same buffer as above but without PMSF and pepstatin A. The material was then forced through a 0.6 mm needle, made up to the required volume, (usually ×4 the volume of the original cell pellet), aliquoted and stored frozen at −80° C. S1P1 GTPγS assay Human S1P1 rat hepatoma membranes (1.5 μg/well) were adhered to a wheatgerm agglutinin (WGA)-coated scintillation proximity assay (SPA) beads (0.125 mg/well) in assay buffer (HEPES 20 mM, MgCl2 10 mM, NaCl 100 mM and pH adjusted to 7.4 using KOH 5M, GDP 10 μM FAC (final assay concentration) and saponin 90 μg/ml FAC was also added).
After 30 minutes pre-coupling on ice the bead and membrane suspension was dispensed into a white Greiner polypropylene LV384-well plate (5 μl/well), containing 0.1 μl of the compound. 5 μl/well [^35S]-GTPγS (0.5 nM final radioligand conc) made up in assay buffer was then added to agonist plates. The final assay cocktail (10.1 μl) was then centrifuged at 1000 rpm for 5 minutes then read immediately on a Viewlux reader.
All test compounds were dissolved in DMSO at a concentration of 10 mM and were prepared in 100% DMSO using a 1 in 4 dilution step to provide 11 point dose response curves. The dilutions were transferred to the assay plates ensuring that the DMSO concentration was constant across the plate for all assays.
All data was normalized to the mean of 16 high and 16 low control wells on each plate. A four parameter curve fit was then applied.
Recombinant EDG1-bla/U2OS cells (contain the human Endothelial Differentiation Gene 1 (EDG1) linked to a TEV protease site and a Gal4-VP16 transcription factor stably integrated into the Tango GPCR-bla U2OS parental cell line) were suspended in assay medium (Invitrogen Freestyle Expression Medium) at a density of 312, 500 cells/ml. Add 100 μl/well of the assay medium to the cell-free control wells (column 12) and 100 μl/well of the cell suspension to the test compound wells (row 2-8, column 1-10), the unstimulated control wells (DMSO) (column 11), and stimulated control wells (S1P) (row 1, column 1-10) in a Corning black-well, clear bottom 96-well plate. Cells were incubated at 37° C., 5% CO2 for 44-48 h. Add 25 μl of 5× stock solution of test compounds in assay medium with 0.5% DMSO to the test compound wells, 25 μl of 5× stock solution of agonist (S1P) in assay medium with 0.5% DMSO to the stimulated compound wells, and 25 μl of 5× stock solution of 0.5% DMSO in assay medium to the unstimulated control and cell-free control wells.
After incubation at 37° C., 5% CO2 for 5 h, 25 μl of 6× substrate mixture (6 μl Solution A (1 mg LiveBLAzer™-FRET B/G substrate (CCF4-AM) in 912 μl DMSO) plus 60 μl Solution B plus 934 μl Solution C) was added to each well and incubate at room temperature for 2 h in dark. The plate was finally read on EnVision for two emission channels (460 nm and 530 nm).
All test compounds were dissolved in DMSO at a concentration of 10 mM and were prepared in 100% DMSO using a 1 in 5 dilution step to provide 10 point dose response curves. […]
In the case of `CC(C)Oc1ccc(-c2nc(-c3ccc(F)c4c(CCC(=O)O)c[nH]c34)no2)cc1C#N` [Example 21, 3-[7-(5-{3-Cyano-4-[(1-methylethyl)oxy]phenyl}-1,2,4-oxadiazol-3-yl)-4-fluoro-1H-indol-3-yl]propanoic acid], the EC50 is below 10 nM.

As for `CC(C)Oc1ccc(-c2nc(-c3ccc(F)c4c(CCC(=O)O)cn(C)c34)no2)cc1Cl` [Example 20, 3-[7-(5-{3-Chloro-4-[(1-methylethyl)oxy]phenyl}-1,2,4-oxadiazol-3-yl)-4-fluoro-1-methyl-1H-indol-3-yl]propanoic acid], the EC50 is below 10 nM.

Regarding `CC(C)Oc1ccc(-c2nc(-c3cc4[nH]cc(CCC(=O)O)c4cc3F)no2)cc1C#N` [Example 110, 3-[6-(5-{3-Cyano-4-[(1-methylethyl)oxy]phenyl}-1,2,4-oxadiazol-3-yl)-5-fluoro-1H-indol-3-yl]propanoic acid], the EC50 was below 1 nM.

Consider `CCCCn1cc(CCC(=O)O)c2cccc(-c3noc(-c4ccc(OC(C)C)c(Cl)c4)n3)c21` [Example 29, 3-[1-butyl-7-(5-{3-chloro-4-[(1-methylethyl)oxy]phenyl}-1,2,4-oxadiazol-3-yl)-1H-indol-3-yl]propanoic acid], for which the EC50 was at least 1000 nM.

In the case of `CC(C)Oc1ccc(-c2nc(-c3c(F)ccc4c(CCC(=O)O)c[nH]c34)no2)cc1Cl` [Example 103, 3-[7-(5-{3-Chloro-4-[(1-methylethyl)oxy]phenyl}-1,2,4-oxadiazol-3-yl)-6-fluoro-1H-indol-3-yl]propanoic acid], the EC50 was below 1 nM.

Consider `CC(C)Oc1ccc(-c2nc(-c3cccc4c(CCC(=O)O)cn(C)c34)no2)cc1Cl` [Example 2, 3-[7-(5-{3-Chloro-4-[(1-methylethyl)oxy]phenyl}-1,2,4-oxadiazol-3-yl)-1-methyl-1H-indol-3-yl]propanoic acid], for which the EC50 was below 10 nM.

`CC(C)Oc1ccc(-c2nc(-c3cccc4c(CNCCC(=O)O)cn(C)c34)no2)cc1Cl` [Example 58, N-{[7-(5-{3-chloro-4-[(1-methylethyl)oxy]phenyl}-1,2,4-oxadiazol-3-yl)-1-methyl-1H-indol-3-yl]methyl}-β-alanine]: the EC50 is below 1 nM.

In the case of `CC(C)Oc1ccc(-c2nc(-c3cccc4c(C(=O)NCCC(=O)O)c[nH]c34)no2)cc1Cl` [Example 73, N-{[7-(5-{3-chloro-4-[(1-methylethyl)oxy]phenyl}-1,2,4-oxadiazol-3-yl)-1H-indol-3-yl]carbonyl}-β-alanine], the EC50 is below 1 nM.

Consider `CC(C)Oc1ncc(-c2nc(-c3cc4[nH]cc(CCC(=O)O)c4cc3F)no2)cc1Cl` [Example 111, 3-[6-(5-{5-Chloro-6-[(1-methylethyl)oxy]-3-pyridinyl}-1,2,4-oxadiazol-3-yl)-5-fluoro-1H-indol-3-yl]propanoic acid], for which the EC50 was below 10 nM.

In the case of `CC(C)Oc1ccc(-c2nc(-c3cccc4c(CNCCC(=O)O)c[nH]c34)no2)cc1Cl` [Example 46, N-{[7-(5-{3-chloro-4-[(1-methylethyl)oxy]phenyl}-1,2,4-oxadiazol-3-yl)-1H-indol-3-yl]methyl}-β-alanine], the EC50 was below 10 nM.

With `CC(C)Oc1ccc(-c2nc(-c3cccc4c(CN5CCC(C(=O)O)CC5)c[nH]c34)no2)cc1Cl` [Example 48, 1-{[7-(5-{3-chloro-4-[(1-methylethyl)oxy]phenyl}-1,2,4-oxadiazol-3-yl)-1H-indol-3-yl]methyl}-4-piperidinecarboxylic acid], the EC50 is below 10 nM.

For the compound `CC(C)Oc1ccc(-c2nc(-c3ccc4c(CCC(=O)O)c[nH]c4c3)no2)cc1C#N` [Example 7, 3-[6-(5-{3-Cyano-4-[(1-methylethyl)oxy]phenyl}-1,2,4-oxadiazol-3-yl)-1H-indol-3-yl]propanoic acid], the EC50 was below 1 nM.

Take `CC(C)Oc1ncc(-c2nc(-c3ccc4c(CN5CCC(C(=O)O)CC5)c[nH]c4c3)no2)cc1Cl` [Example 78, 1-{[6-(5-{5-chloro-6-[(1-methylethyl)oxy]-3-pyridinyl}-1,2,4-oxadiazol-3-yl)-1H-indol-3-yl]methyl}-4-piperidinecarboxylic acid]: the EC50 is at least 1000 nM.

In the case of `CC(C)Oc1ccc(-c2nc(-c3cccc4c(CN[C@H](C)C(=O)O)c[nH]c34)no2)cc1Cl` [Example 49, N-{[7-(5-{3-chloro-4-[(1-methylethyl)oxy]phenyl}-1,2,4-oxadiazol-3-yl)-1H-indol-3-yl]methyl}-D-alanine], the EC50 is below 1 nM.

With `COc1ccc(-c2nc(-c3cccc4c(CCC(=O)O)cn(C)c34)no2)cc1OC` [Example 44, 3-(7-{5-[3,4-bis(methyloxy)phenyl]-1,2,4-oxadiazol-3-yl}-1-methyl-1H-indol-3-yl)propanoic acid], the EC50 was at least 1000 nM.

On to `CC(C)Oc1ccc(-c2nc(-c3cccc4c(CCC(=O)O)c[nH]c34)no2)cc1Cl` [Example 1, 3-[7-(5-{3-chloro-4-[(1-methylethyl)oxy]phenyl}-1,2,4-oxadiazol-3-yl)-1H-indol-3-yl]propanoic acid], for which the EC50 is below 10 nM.

`CC(C)Oc1ccc(-c2nc(-c3cccc4c(CCN5CC(C(=O)O)C5)cn(C)c34)no2)cc1Cl` [Example 67, 1-{2-[7-(5-{3-chloro-4-[(1-methylethyl)oxy]phenyl}-1,2,4-oxadiazol-3-yl)-1-methyl-1H-indol-3-yl]ethyl}-3-azetidinecarboxylic acid]: the EC50 is below 10 nM.

As for `CC(C)Oc1ccc(-c2nc(-c3cccc4c(CNCC(=O)O)c[nH]c34)no2)cc1Cl` [Example 47, N-{[7-(5-{3-chloro-4-[(1-methylethyl)oxy]phenyl}-1,2,4-oxadiazol-3-yl)-1H-indol-3-yl]methyl}glycine], the EC50 was below 1 nM.

Take `CC(C)Oc1ncc(-c2nc(-c3cc(F)cc4c(CCC(=O)O)c[nH]c34)no2)cc1Cl` [Example 101, 3-[7-(5-{5-Chloro-6-[(1-methylethyl)oxy]-3-pyridinyl}-1,2,4-oxadiazol-3-yl)-5-fluoro-1H-indol-3-yl]propanoic acid]: the EC50 was below 10 nM.

Take `CC(C)Oc1ccc(-c2nc(-c3c(F)ccc4c(CCC(=O)O)c[nH]c34)no2)cc1C#N` [Example 105, 3-[7-(5-{3-Cyano-4-[(1-methylethyl)oxy]phenyl}-1,2,4-oxadiazol-3-yl)-6-fluoro-1H-indol-3-yl]propanoic acid]: the EC50 was below 1 nM.

For the compound `CC(C)Oc1ncc(-c2nc(-c3cc(F)cc4c(CCC(=O)O)cn(C)c34)no2)cc1Cl` [Example 102, 3-[7-(5-{5-Chloro-6-[(1-methylethyl)oxy]-3-pyridinyl}-1,2,4-oxadiazol-3-yl)-5-fluoro-1-methyl-1H-indol-3-yl]propanoic acid], the EC50 was below 1 nM.

Turning to `CC(C)Oc1ccc(-c2nc(-c3ccc4[nH]c(C(=O)O)cc4c3)no2)cc1Cl` [Example 8, Sodium 5-(5-{3-chloro-4-[(1-methylethyl)oxy]phenyl}-1,2,4-oxadiazol-3-yl)-1H-indole-2-carboxylate], the EC50 was at least 1000 nM.

On to `CC(C)Oc1ccc(-c2nc(-c3cccc4c(CCCOCC(=O)O)cn(C)c34)no2)cc1Cl` [Example 80, ({3-[7-(5-{3-chloro-4-[(1-methylethyl)oxy]phenyl}-1,2,4-oxadiazol-3-yl)-1-methyl-1H-indol-3-yl]propyl}oxy)acetic acid], for which the EC50 was below 10 nM.
